From patent US6677370B2, “Compositions and uses of dictyostatin compounds” (Harbor Branch Oceanographic Institution, Inc., priority 2000, dated 2004)
Read-outs that look alike come from different tables or passages of the source.

Key:
[1] = tested on: cellular proliferation; conditions: literature; cited from earlier work
[2] = tested on: MES-SA human uterine carcinoma; experiment: Cytotoxicity, MTT assay, MES-SA; type: cell-based; conditions: read-out: IC50 (Std dev) MES-SA
Procedure: (§1) The cytotoxicity of dictyostatin-1 for various Taxol resistant and sensitive cell lines was compared to that of Taxol. The cell lines used were A549 human adenocarcinoma, MCF-7 human breast carcinoma, MCF-7ADR multi-drug resistant (Taxol resistant) human breast carcinoma, MES-SA human uterine carcinoma and MES-SA/DX5 Taxol resistant uterine carcinoma. All cell lines were maintained in Roswell Park Memorial Institute (RPMI) medium 1640 supplemented with 100 U/ml penicillin, […] streptomycin, 60 mg/ml 1-glutamine, 18 mM HEPES, 0.05 mg/ml gentamicin (Life Technologies, Gaithersburg, Md.) and 10% fetal bovine serum and cultured in plastic tissue culture flasks at 37° C. in humidified air containing 5% CO2. […] To spectrophotometrically quantitate formation of reduced formazan, plates are centrifuged (500×g, 10 minutes), culture fluids removed by aspiration, and 200 μl of acidified isopropanol (2 ml concentrated HC1/liter isopropanol) added per well. The absorbance of the resulting solutions is measured in a plate reader (Tecan Spectra SLT; TECAN U.S., Research Triangle Park, N.C.) at 570 nm and a 650 nm reference filter. […] The two standard drug controls (indicated above) are included in each assay as a check to monitor the drug sensitivity of each of the cell lines and IC50 values are determined for each drug-cell combination.

[3] = tested on: MCF-7ADR multi-drug resistant (Taxol resistant) human breast carcinoma; experiment: Cytotoxicity, MTT assay, MCF-7/ADR; type: cell-based; conditions: for IC50: Homo sapiens, NCI/ADR-RES, read-out: IC50 (Std dev) MCF-7/ADR; for Resistance, MCF-7/ADR relative to MCF-7: ratio of IC50 values, resistant vs sensitive line; for resistance of MCF-7ADR cells: resistant vs Taxol-sensitive counterpart
Procedure: (§2) The cytotoxicity of dictyostatin-1 for various Taxol resistant and sensitive cell lines was compared to that of Taxol. The cell lines used were A549 human adenocarcinoma, MCF-7 human breast carcinoma, MCF-7ADR multi-drug resistant (Taxol resistant) human breast carcinoma, MES-SA human uterine carcinoma and MES-SA/DX5 Taxol resistant uterine carcinoma. All cell lines were maintained in Roswell Park Memorial Institute (RPMI) medium 1640 supplemented with 100 U/ml penicillin, […] streptomycin, 60 mg/ml 1-glutamine, 18 mM HEPES, 0.05 mg/ml gentamicin (Life Technologies, Gaithersburg, Md.) and 10% fetal bovine serum and cultured in plastic tissue culture flasks at 37° C. in humidified air containing 5% CO2. Stock cultures of cells were subcultured 1:10 every 3 to 4 days. To assess the antiproliferative effects of agents against the cells, 200 μl cultures (96-well tissue culture plates, Nunc, Denmark) were established at 1×10^5 cells/mL in TCM or TCM containing the test agent at 0.03-5.0 μg/ml. After 72 -h exposures, the effects of dictyostatin-1 and Taxol on cell proliferation were quantitated and IC50 values determined as follows: 75 μl of warm growth media containing 5 mg/ml 3-[4,5-dimethylthiazol-2-yl]-2,5-diphenyltetrazolium bromide (MTT) (M. C. Alley et al. (1988) Cancer Res. 48:589) was added to each well, cultures returned to the incubator, and left undisturbed for 3 hours. To spectrophotometrically quantitate formation of reduced formazan, plates are centrifuged (500×g, 10 minutes), culture fluids removed by aspiration, and 200 μl of acidified isopropanol (2 ml concentrated HC1/liter isopropanol) added per well. The absorbance of the resulting solutions is measured in a plate reader (Tecan Spectra SLT; TECAN U.S., Research Triangle Park, N.C.) at 570 nm and a 650 nm reference filter. The absorbance of tests wells is divided by the absorbance of drug-free wells, and the concentration of agent that results in 50% of the absorbance of untreated cultures (IC50) is determined by linear regression of logit-transformed data (D. J. Finney, Statistical Method in Biological Assay, Third Ed., pp.316-348, Charles Griffin Co., London, 1978). A linear relationship between tumor cell number and formazan production has been routinely observed over the range of cell densities observed in these experiments. The two standard drug controls (indicated above) are included in each assay as a check to monitor the drug sensitivity of each of the cell lines and IC50 values are determined for each drug-cell combination.

[4] = tested on: A549 human adenocarcinoma; experiment: Cytotoxicity, MTT assay, A549; type: cell-based; conditions: read-out: IC50 (Std dev) A549
Procedure: as §1

[5] = tested on: MCF-7 human breast carcinoma; experiment: Cytotoxicity, MTT assay, MCF-7; type: cell-based; conditions: read-out: IC50 (Std dev) MCF-7
Procedure: as §1

[6] = tested on: purified bovine brain tubulin; experiment: Polymerization of purified tubulin (optical density at 350 nm); type: biochemical; conditions: 10 μM
Procedure: Polymerization of purified bovine brain tubulin (Cytoskeleton Inc., Denver, Co.) was followed by changes in the optical density of tubulin solutions at 350 nm in a Hitachi U-3010 spectrophotometer equipped with a SPR-10 electronic thermostatted cell holder. Stock solutions of tubulin were diluted on ice in G-PEM buffer (1 mM GTP, 80 mM PIPES (piperazine-N,N′-bis(2-ethanesulfonic acid]sesquisodium salt), 1 mM EGTA (ethylene glycol-bis(b-amine ethyl ether) N,N,N,N′-tetra acetic acid), 0.5 mM magnesium chloride; pH 6.8) to a final concentration of 1 mg/ml. The instrument was zeroed on this solution at 4° C. Dictyostatin-1, was then added to the tubulin to a final concentration of 10 μM and quickly mixed. The polymerization was monitored by observing light scattering changes in optical density at 350 nm using the spectrophotometer. The temperature was varied for a time period of […] beginning at 4° C. for 1 minute, then linearly ramping to 35° C. over 30 minutes, with a hold of one minute at 35° C., then linearly decreasing to 4° C. over 15 minutes, with this temperature being maintained for an additional 15 minutes. Absorbance was measured and recorded over the entire time period.

[7] = tested on: PANC-1 human pancreatic adenoma cells; experiment: Cell cycle progression of PANC-1 cells (propidium iodide flow cytometry); type: cell-based; conditions: 100 nM, 24 hours; for percentage of cells in S phase: untreated control 5.8%; for percentage of cells in G2/M phase: untreated control 34.4%; for percentage of cells comprising the G1 population: untreated control 59.8%
Procedure: Cell cycle studies were initiated in order to pinpoint a specific phase within the cell cycle in which dictyostatin-1 was exerting its antiproliferative effect. PANC-1 human pancreatic adenoma cells were used as cell cycle targets to compare the effects on perturbation of the cell cycle of dictyostatin-1 to the known mitotic spindle inhibitor […]. Cell cycle analyses were performed as follows: PANC-1 cells were incubated at 37° C. in 5% CO2 in air in the presence or absence of varying concentrations of dictyostatin-1 or Taxol for 24 hours.
Cells were harvested, fixed in ethanol and stained with 0.02 mg/ml of propidium iodide (P.I.) together with 0.1 mg/ml of RNAse A. This procedure permeabilizes cells and allows entry of P.I. to stain DNA (propidium iodide also stains double stranded RNA, so RNAse is included in the preparation to exclude this possibility). Stained preparations were analyzed on a Coulter EPICS ELITE with 488 nm excitation. Fluorescence measurements and resulting DNA histograms were collected from at least 3,000 P.I. stained cells at an emission wavelength of 690 nm. Raw histogram data was further analyzed using a cell cycle analysis program (Multicycle, Phoenix Flow Systems).

[8] = tested on: MES-SA/DX5 Taxol resistant uterine carcinoma; experiment: Cytotoxicity, MTT assay, MES-SA/DX5; type: cell-based, human; conditions: for IC50: Homo sapiens, read-out: IC50 (Std dev) MES-SA/DX5; for Resistance, MES-SA/DX5 relative to MES-SA: ratio of IC50 values, resistant vs sensitive line; for resistance of MES-SA/DX5 cells: resistant vs Taxol-sensitive counterpart
Procedure: as §2

[9] = tested on: PANC-1 human pancreatic adenocarcinoma cells; experiment: Immunofluorescent detection of effects on the microtubule matrix (anti-alpha-tubulin); type: cell-based; conditions: PANC-1 cells, 100 nM, overnight
Procedure: Dictyostatin-1 was evaluated as to its effects on the microtubule network of cells using anti-alpha-tubulin monoclonal antibodies.
PANC-1 human pancreatic adenocarcinoma cells were maintained in tissue culture media (TCM=Roswell Park Memorial Institute (RPMI) medium 1640 supplemented with 100 U/ml penicillin, […] streptomycin, 60 mg/ml 1-glutamine, 18 mM HEPES, 0.05 mg/ml gentamicin and 10% fetal bovine serum) and cultured in plastic culture flasks at 37° C. in humidified air containing 5% CO2. Stock cultures of PANC-1 cells were subcultured 1:10 every 3 to 4 days. On day 1, 1.25×10^5 PANC-1 cells were sub-cultured in TCM overnight at 37° C. in 5% CO2 on 22 mm^2 coverslips in 6-well microtiter plates. On day 2, TCM was removed and replaced with various concentrations of dictyostatin-1, or Taxol, in TCM or TCM without drug (control) and incubated overnight at 37° C. in 5% CO2. On day 3, TCM was removed and cells attached to coverslips were fixed with a 3.7% formaldehyde solution in Dulbecco's PBS for 10 minutes at room temperature. Cells were permeabilized with a 2% Triton X-100 solution, 2 ml per well, for 5 minutes at room temperature and washed twice in Dulbecco's PBS prior to staining. […]

| SMILES | IC50 values, inhibition of cellular proliferation [1] | Resistance, MCF-7/ADR relative to MCF-7 [3] | resistance of MCF-7ADR cells [3] | percentage of cells in S phase [7] | percentage of cells in G2/M phase [7] | percentage of cells comprising the G1 population [7] | Resistance, MES-SA/DX5 relative to MES-SA [8] | resistance of MES-SA/DX5 cells [8] | effect on microtubule network (bundling) [9] | other results |
| --- | --- | --- | --- | --- | --- | --- | --- | --- | --- | --- |
| C=C1C[C@H](C)C[C@@H]2CC=C[C@@H](C/C=C\C(=O)O[C@H]([C@@H](O)/C=C/[C@@H]3CC(C)=CCO3)C[C@@H]3O[C@H]3[C@@H](O)C1)O2 [Laulimalide] | low nanomolar range | – | – | – | – | – | – | – | – | – |
| C=C1CC(C)C[C@@H]2CC=C[C@@H](C/C=C\C(=O)O[C@@H]3C[C@H](O[C@@H]3/C=C/[C@H]3CC(C)=CCO3)[C@H](O)C(O)C1)O2 (stereo partly drawn) [isolaulimalide] | low micromolar range | – | – | – | – | – | – | – | – | – |
| C=C/C=C\C(C)C1OC(=O)/C=C\C=C\C(C)C(O)CC(O)/C=C\C(C)C(O)C(C)CC(C)CCC(O)C1C (stereo not drawn) [Dictyostatin-1] | – | 13× | 13 fold | 30% | 35% | 36% | 3× | 3 fold | extensive microtubule bundling resulting in almost complete depletion of non-bundled microtubular material in the cytoplasm | IC50 ([2]; 72 h): 4.1 nM; IC50 ([3]; 72 h): 20 nM; IC50 ([4]; A549, 72 h): 0.95 nM; IC50 ([5]; MCF7, 72 h): 1.5 nM; stability of polymerized tubulin on cooling ([6]; temperature decreased from 35° C. to 4° C.): did not substantially depolymerize upon reduction of the temperature; induction of tubulin polymerization ([6]; tubulin 1 mg/ml, temperature ramp 4° C. to 35° C.): induced tubulin polymerization with a maximum polymerization level reached at 35 °C; IC50 ([8]; MES-SA/Dx5, 72 h): 11 nM |
| CC(=O)O[C@H]1C(=O)[C@@]2(C)[C@H]([C@H](OC(=O)c3ccccc3)[C@]3(O)C[C@H](OC(=O)[C@H](O)[C@@H](NC(=O)c4ccccc4)c4ccccc4)C(C)=C1C3(C)C)[C@]1(OC(C)=O)CO[C@@H]1C[C@@H]2O [Taxol] | – | 1332× | 1332 fold | 27% | 47% | 26% | 501× | 501 fold | characteristic formation of microtubular “bundles” but also a substantial amount of “non-bundled” microtubular material still remained in the cytoplasm | IC50 ([2]; 72-h exposure, MTT): 3.3 nM; IC50 ([3]; 72-h exposure, MTT): 3330 nM; IC50 ([4]; A549, 72-h exposure, MTT): 5.13 nM; IC50 ([5]; MCF7, 72-h exposure, MTT): 2.5 nM; IC50 ([8]; MES-SA/Dx5, 72-h exposure, MTT): 1650 nM |
